Assay [1] addresses T1, PDE2A (Mus musculus, UniProt Q922S4).
T1 construct: targets used in the assays are full-length proteins (as opposed to simply the catalytic domain); expressed in transfected cells; host or cells: Schizosaccharomyces pombe strains LWP367 and LWP371
T1 sequence (Q922S4 1-939): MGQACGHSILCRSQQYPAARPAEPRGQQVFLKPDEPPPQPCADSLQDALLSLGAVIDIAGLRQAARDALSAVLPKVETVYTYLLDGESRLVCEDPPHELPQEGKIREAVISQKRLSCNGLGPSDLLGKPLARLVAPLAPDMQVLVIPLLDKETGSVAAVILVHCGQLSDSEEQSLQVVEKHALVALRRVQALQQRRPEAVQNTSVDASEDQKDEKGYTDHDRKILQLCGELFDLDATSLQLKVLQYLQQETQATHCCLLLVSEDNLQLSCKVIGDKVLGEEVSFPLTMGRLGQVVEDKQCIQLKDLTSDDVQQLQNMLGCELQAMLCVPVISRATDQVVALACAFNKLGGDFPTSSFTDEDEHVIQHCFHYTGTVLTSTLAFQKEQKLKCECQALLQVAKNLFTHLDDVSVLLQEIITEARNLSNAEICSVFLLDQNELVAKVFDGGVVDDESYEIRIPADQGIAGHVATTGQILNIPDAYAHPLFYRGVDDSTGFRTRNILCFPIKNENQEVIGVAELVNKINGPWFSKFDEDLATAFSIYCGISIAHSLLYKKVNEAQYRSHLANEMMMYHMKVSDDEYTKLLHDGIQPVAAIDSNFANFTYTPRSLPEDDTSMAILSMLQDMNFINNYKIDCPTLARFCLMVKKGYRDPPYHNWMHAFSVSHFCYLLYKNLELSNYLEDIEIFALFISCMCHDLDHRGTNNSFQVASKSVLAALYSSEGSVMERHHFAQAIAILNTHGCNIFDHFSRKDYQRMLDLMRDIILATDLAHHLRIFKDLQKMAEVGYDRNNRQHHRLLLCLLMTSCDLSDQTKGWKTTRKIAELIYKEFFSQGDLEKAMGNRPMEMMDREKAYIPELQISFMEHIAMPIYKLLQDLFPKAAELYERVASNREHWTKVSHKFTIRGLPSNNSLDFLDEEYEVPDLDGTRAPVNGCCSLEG
Briefly: cAMP assay in yeast strain LWP371 expressing PDE2A. The format is cell-based, murine. The note with it: 20 μM EHNA as compared to 200 μM, one-hour time point. How it is done: (§1) β-galactosidase assays and characterization of 5FOA-sensitivity were carried out as previously described^10. cAMP assays were performed on exponential phase cells grown in EMM complete medium (3% glucose), using the Assay Designs cAMP EIA kit, according to manufacturer's instructions (Assay Designs, Ann arbor, MI).
(§2) Thus, PDE inhibition can be indirectly quantitated by measuring the effect of a compound on cAMP levels in target yeast strains.

The target of assay [2] is T1, PDE2A. Briefly: fbp1-lacZ β-galactosidase assay, PDE2A strain LWP367. The note with it: specific activity per milligram of soluble protein, average ± SD. In kind it is cell-based, murine. How it is done:
as §1
(§3) The effect of known PDE inhibitors on the expression of the fbp1-lacZ fusion in murine PDE-expressing strains was tested. […] For Table 4 β-galactosidase activity was determined from 3 to 4 independent exponential phase cultures. The average±SD represents specific activity per milligram of soluble protein.

The target in assay [3] is T2, PDE8A (Mus musculus, UniProt O88502).
T2 construct: targets used in the assays are full-length proteins (as opposed to simply the catalytic domain); expressed in transfected cells; host or cells: Schizosaccharomyces pombe strains DDP13 and CHP1141
T2 sequence (O88502 1-823): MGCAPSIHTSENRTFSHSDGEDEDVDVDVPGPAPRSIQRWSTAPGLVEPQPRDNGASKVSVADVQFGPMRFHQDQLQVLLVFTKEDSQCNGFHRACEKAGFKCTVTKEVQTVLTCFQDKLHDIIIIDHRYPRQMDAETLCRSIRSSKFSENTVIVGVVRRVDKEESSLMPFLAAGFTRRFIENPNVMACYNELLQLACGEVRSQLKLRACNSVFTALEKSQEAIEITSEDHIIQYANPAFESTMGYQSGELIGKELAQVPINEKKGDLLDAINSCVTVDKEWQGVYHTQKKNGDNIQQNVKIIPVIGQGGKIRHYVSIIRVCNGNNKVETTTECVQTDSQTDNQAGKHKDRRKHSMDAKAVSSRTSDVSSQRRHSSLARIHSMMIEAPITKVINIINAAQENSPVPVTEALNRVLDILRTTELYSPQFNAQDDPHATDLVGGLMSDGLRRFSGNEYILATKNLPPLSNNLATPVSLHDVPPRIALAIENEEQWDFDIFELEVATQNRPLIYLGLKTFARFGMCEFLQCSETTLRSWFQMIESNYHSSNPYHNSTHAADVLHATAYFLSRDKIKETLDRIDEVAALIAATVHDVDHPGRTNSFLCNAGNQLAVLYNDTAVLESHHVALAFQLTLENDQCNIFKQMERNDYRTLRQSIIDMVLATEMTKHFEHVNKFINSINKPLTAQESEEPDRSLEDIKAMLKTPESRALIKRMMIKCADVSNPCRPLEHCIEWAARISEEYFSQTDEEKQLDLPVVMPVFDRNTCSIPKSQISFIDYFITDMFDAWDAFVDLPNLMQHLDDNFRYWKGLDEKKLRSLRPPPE
The assay is described as follows: fbp1-lacZ β-galactosidase assay, PDE8A strain DDP13. The format is cell-based, murine. Particulars: specific activity per milligram of soluble protein, average ± SD. How it is done:
as §1, §3

Assay [4] relates to PDE2A, PDE4A, PDE4B, Cgs2. The assay is described as follows: High throughput 5FOA growth screens of bioactive libraries. In kind it is cell-based, murine; Schizosaccharomyces pombe. The note with it: average 20 μM; composite Z score cut-off ≧8.53. On the procedure:
High throughput drug screens were carried out at the Broad Institute's Chemical Biology Program screening facility (Broad Institute, Cambridge, Mass.). Depending upon the strain, cultures were pregrown to exponential phase in EMM complete medium containing from 0.5 to 2.5 mM cAMP to repress fbp1-ura4 transcription. […] Starting cell concentrations ranged from 0.5×10^5 to 4×10^5 cells/ml depending on the screening strain. […] Other positive control dishes contained 5 mM cAMP in the 5FOA medium. Cultures were grown for 48 hours at 30° C., sealed in an airtight container with moist paper towels to prevent evaporation. Optical densities (OD600) of cultures were measured using a microplate reader. Bioinformatic analysis of the results to determine composite Z scores was performed as previously described^30, 31.

In another assay the target is T3, Cgs2 (Schizosaccharomyces pombe, UniProt P36599).
T3 construct: the wild-type S. pombe Cgs2^+ PDE; endogenous in cells; host or cells: Schizosaccharomyces pombe strain CHP861
T3 sequence (P36599 1-346): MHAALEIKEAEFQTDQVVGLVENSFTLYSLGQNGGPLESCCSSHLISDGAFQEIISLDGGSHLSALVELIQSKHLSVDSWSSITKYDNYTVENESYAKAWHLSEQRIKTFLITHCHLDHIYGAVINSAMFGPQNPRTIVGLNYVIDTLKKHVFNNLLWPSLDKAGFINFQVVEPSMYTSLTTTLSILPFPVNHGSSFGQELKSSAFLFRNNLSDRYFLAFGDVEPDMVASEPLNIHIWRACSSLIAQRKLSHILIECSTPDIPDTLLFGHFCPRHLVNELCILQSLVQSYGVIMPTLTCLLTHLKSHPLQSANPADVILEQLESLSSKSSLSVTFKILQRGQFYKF
Briefly: fbp1-lacZ β-galactosidase assay, Cgs2 strain CHP861. In kind it is cell-based. Particulars: specific activity per milligram of soluble protein, average ± SD. On the procedure: as §1, §3

Assay [5] has as its target T2, PDE8A. Briefly: cAMP assay in yeast strain CHP1141 expressing PDE8A. In kind it is cell-based, murine. Particulars: rolipram 20 and 200 μM, one-hour time point. How it is done: as §1, §2
The next assay deals with T4, PDE7A (Homo sapiens, UniProt Q13946).
T4 construct: targets used in the assays are full-length proteins (as opposed to simply the catalytic domain); expressed in transfected cells; host or cells: Schizosaccharomyces pombe, gene integrated at the cgs2 locus
T4 sequence (Q13946 whole entry, the tested form may be a part): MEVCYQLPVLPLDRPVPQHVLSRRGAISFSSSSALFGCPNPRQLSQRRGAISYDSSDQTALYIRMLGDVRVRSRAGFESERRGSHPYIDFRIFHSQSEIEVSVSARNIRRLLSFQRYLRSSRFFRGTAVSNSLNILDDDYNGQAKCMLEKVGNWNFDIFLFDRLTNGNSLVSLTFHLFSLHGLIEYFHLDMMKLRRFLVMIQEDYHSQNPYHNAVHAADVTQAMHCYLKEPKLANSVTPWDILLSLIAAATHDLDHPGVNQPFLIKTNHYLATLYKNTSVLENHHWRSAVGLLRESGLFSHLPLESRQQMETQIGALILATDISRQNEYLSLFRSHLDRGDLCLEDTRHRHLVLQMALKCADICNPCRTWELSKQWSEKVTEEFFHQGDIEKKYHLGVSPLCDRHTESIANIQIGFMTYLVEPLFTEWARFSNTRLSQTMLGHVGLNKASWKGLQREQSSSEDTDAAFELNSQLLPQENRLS
Briefly: cAMP assay in yeast strain expressing PDE7A. In kind it is cell-based.

Assay [6] deals with PDE4A, PDE4B, PDE4D, PDE7A. The assay is described as follows: Overall PDE inhibitor profile from the yeast assays (table footnotes, summary). The format is cell-based. From the text: PDE inhibitors were identified using methods described herein, such as high throughput drug screens on genetically engineered fission yeast strains that express drug targets (e.g., PDE4A and/or PDE4B, which are anti-inflammatory targets). PDE inhibitors were identified based on their ability to stimulate growth and compounds were identified because they were effective in live cells. In addition, targets used in the assays are full-length proteins (as opposed to simply the catalytic domain) and the assay used included a built-in toxicity test, permeability test and stability test. The inhibitors identified display a very high degree of target specificity. Compounds identified include inhibitors that act on two of three PDE4 family enzymes and inhibitors that act on combinations of PDE4 and PDE7 strains. […] Limited inhibition of PDE4D by a PDE inhibitor is desirable, in view of the fact that inhibition of PDE4D causes emesis and cardiac arrhythmias. Subtype specificity was confirmed by means of cAMP assays.
Cells were pregrown in EMM medium [MP Biomedicals (Solon, OH), 3% glucose, filter-sterilized to avoid carmelization, which would introduce variability into the optical density of the medium] containing from 0 mM to 2.5 mM cAMP (or either 0.5 mM or 1.0 mM cGMP). This was to repress expression of the fbp1-ura4 reporter prior to exposure of cells to 5FOA medium. Cells were grown at 30° C. to exponential phase (approximately 10^7 cells/ml). Cells were collected by centrifugation and resuspended in 5FOA medium, and 25 μl were transferred to 384-well microtiter dishes (untreated, with flat clear bottoms) that had been pre-filled with 25 μl 5FOA medium and pre-pinned with 100 nl of compounds (stock solutions were generally 10 mM). Starting cell concentrations ranged from 0.5×10^5 to 4×10^5 cells/ml depending on the screening strain. […] Other positive control dishes contained 5 mM cAMP in the 5FOA medium for PDEs that lack appropriate control compounds. Cultures were grown for 48 hours at 30° C., sealed in an airtight container with moist paper towels to prevent evaporation. Optical densities (OD600) of cultures were measured using a microplate reader. Bioinformatic analysis of the results to determine composite Z scores was performed as previously described (1, 3).

As for `CCCCCC[C@@H]([C@@H](C)O)n1cnc2c(N)ncnc21` (racemic) [EHNA, erythro-9-(2-hydroxy-3-nonyl)adenine], the “PDE2A inhibition judged by cAMP levels” value at PDE2A [1] is recorded as “partial inhibition”. Further, the “β-galactosidase activity, PDE2A strain” value at PDE2A [2] (5 μM EHNA) is 473 ± 19; at PDE2A [2] (20 μM EHNA) it was 197 ± 51; on PDE2A [2] (200 μM EHNA) it was 45 ± 3.
Turning to `COc1ccc(C2CNC(=O)C2)cc1OC1CCCC1` (stereo not drawn) [Rolipram, rolipram], the “β-galactosidase activity, PDE8A strain” value at PDE8A [3] (50 μM Rolipram) is listed as 253 ± 46; on PDE8A [3] (100 μM Rolipram), 237 ± 67. Further, the “Result in high throughput screens for 5FOA-resistant growth” value in assay [4] was “only affected the PDE4A- and PDE4B-expressing strains”. In addition, the “β-galactosidase activity, Cgs2 strain” value was determined as 1807 ± 446 on Cgs2 (50 μM Rolipram) and 1784 ± 429 on Cgs2 (100 μM Rolipram). Further, at PDE8A [5], the “cAMP levels in PDE8A strain on treatment” value is given as “completely insensitive”.
As for `COc1ccc2c(c1)C1(C)CCC(=O)CC1CC2` (single isomer, unassigned) [Compound 11], at PDE7A, the “cAMP Response (%BRL50481), PDE 7A” value is recorded as 89.00 %BRL50481. The “PDE inhibitor profile in words (table footnote / summary)” value in assay [6] is given as “(3) Strong PDE7A inhibitor”.

(Values after patent US20100179158A1, “INHIBITORS OF CYCLIC AMP PHOSPHODIESTERASES” (priority 2007, published 2010).)
